Assay [1] deals with T1, FLT3 kinase (Homo sapiens, UniProt P36888).
T1 construct: purchased Invitrogen
T1 sequence (P36888 27-993): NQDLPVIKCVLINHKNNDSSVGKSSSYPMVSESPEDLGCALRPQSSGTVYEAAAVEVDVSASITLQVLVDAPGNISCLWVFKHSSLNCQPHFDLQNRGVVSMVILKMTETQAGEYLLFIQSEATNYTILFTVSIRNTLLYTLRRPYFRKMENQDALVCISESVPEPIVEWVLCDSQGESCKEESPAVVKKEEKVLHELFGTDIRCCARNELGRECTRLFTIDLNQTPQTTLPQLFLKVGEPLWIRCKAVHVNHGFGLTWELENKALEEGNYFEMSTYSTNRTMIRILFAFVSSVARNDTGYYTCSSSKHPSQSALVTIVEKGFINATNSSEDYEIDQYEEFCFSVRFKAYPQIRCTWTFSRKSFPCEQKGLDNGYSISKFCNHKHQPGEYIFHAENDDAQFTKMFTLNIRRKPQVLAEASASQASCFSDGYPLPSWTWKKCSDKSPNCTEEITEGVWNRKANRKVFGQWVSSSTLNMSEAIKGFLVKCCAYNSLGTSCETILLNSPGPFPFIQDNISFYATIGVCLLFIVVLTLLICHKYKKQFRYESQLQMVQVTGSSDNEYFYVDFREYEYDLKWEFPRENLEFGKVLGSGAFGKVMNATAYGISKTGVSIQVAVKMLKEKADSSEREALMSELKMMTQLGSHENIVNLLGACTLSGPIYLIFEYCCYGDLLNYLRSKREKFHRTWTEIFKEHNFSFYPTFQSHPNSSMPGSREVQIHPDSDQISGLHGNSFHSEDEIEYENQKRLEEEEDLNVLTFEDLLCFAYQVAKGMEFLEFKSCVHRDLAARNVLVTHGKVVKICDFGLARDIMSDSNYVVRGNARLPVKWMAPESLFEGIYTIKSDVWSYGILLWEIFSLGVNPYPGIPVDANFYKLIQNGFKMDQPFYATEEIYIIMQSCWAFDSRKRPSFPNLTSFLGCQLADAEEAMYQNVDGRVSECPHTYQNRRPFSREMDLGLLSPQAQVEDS
The experiment in a line: Biochemical enzyme inhibition assay (microfluidics, Caliper EZ Reader II), FLT3. The note with it: for IC50: in vitro kinase assay, 60 min pre-incubation, ATP 190 µM, three independent experiments, read-out: FLT3 IC50 (nM) ± SD; for LE: ligand efficiency for FLT3 inhibition.

The target in assay [2] is Aurora B (Homo sapiens, UniProt Q96GD4). The experiment in a line: Biochemical kinase selectivity assay, Aurora B.
Aurora B, sequence (Q96GD4 whole entry): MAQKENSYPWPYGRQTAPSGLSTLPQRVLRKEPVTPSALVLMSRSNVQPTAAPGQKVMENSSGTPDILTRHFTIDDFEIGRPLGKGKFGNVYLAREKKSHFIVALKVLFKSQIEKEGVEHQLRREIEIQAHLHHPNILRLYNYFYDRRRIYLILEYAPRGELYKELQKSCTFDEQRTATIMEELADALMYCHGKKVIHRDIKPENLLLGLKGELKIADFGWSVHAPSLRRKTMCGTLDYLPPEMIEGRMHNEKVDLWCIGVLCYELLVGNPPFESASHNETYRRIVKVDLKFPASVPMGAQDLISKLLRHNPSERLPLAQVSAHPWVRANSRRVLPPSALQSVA
Assay [3] concerns Molm14 par. Put plainly: Cell proliferation (CellTiter-Glo, 48 h), Molm14 par. It counts as cell-based. The settings on record: Homo sapiens, MOLM-14. An excerpt:
(§1) Stable BaF3 populations expressing activated FLT3 were generated by retroviral spinfection with the appropriate mutated plasmid followed by selection and growth factor withdrawal as previously described. The BaF3 cell line was originally obtained from the laboratory of Charles Sawyers and has not been authenticated. MV411 and Molm14 cells were obtained from the laboratory of Scott Kogan and authenticated by Promega STR analysis in June 2013. All cell lines were mycoplasma-free. Cells were incubated with compounds for 48 hours and proliferation was assessed using CellTiter-Glo (Promega; Madison, WI) according to the manufacturer’s recommendation on a SpectraMax M3 microplate reader using SpectraMax Software (Molecular Devices; Sunnyvale, CA). All cell viability data shown is reflective of experiments performed a minimum of three times. […]
(§2) S13. Cell Cultures: Stable BaF3 populations expressing activated FLT3 were generated by retroviral spinfection with the appropriate mutated plasmid followed by selection and growth factor withdrawal as previously described .4 The BaF3 cell line was originally obtained from the laboratory of Charles Sawyers and has not been authenticated. MV411 and Molm14 cells were obtained from the laboratory of Scott Kogan and authenticated by Promega STR analysis in June
(§3) 2013. All cell lines were mycoplasma -free. Cells were incubated with compounds for 48 hours and proliferation was assessed using CellTiter -Glo (Promega; Madison, WI) according to the manufacturer’s recommendation on a SpectraMax M3 microplate reader using SpectraMax Software (Molecular Devices; Sunnyvale, CA). All cell viability data shown is reflective of experiments performed a minimum of three times.
In general terms: ATP-based viability assays read luminescence as a measure of living cells.

Assay [4] has as its target CSF-1R (Homo sapiens, UniProt P07333). The experiment in a line: Biochemical kinase selectivity assay, CSF-1R.
In assay [5] the test system is Molm14^D835Y. Put plainly: Cell proliferation (CellTiter-Glo, 48 h), Molm14 D835Y. It counts as cell-based. The note with it: for GI50: Homo sapiens, MOLM-14, Molm14^D835Y, 48 hours.
From the text: as §1, §2, §3

In assay [6] the test system is Molm14^F691L. The experiment in a line: Cell proliferation (CellTiter-Glo, 48 h), Molm14 F691L. It counts as cell-based. The settings on record: for GI50: Homo sapiens, MOLM-14, Molm14^F691L, 48 hours.
From the text: as §1, §2, §3

For orientation: IC50 means the concentration that gives 50% inhibition. Broadly, the inhibition is the percentage by which the read-out fell short of the control. What is called GI50 is the concentration giving 50% growth inhibition.

Where two headings read alike, the source gives them in different places.

CSF-1R, sequence (P07333 20-972, species assumed): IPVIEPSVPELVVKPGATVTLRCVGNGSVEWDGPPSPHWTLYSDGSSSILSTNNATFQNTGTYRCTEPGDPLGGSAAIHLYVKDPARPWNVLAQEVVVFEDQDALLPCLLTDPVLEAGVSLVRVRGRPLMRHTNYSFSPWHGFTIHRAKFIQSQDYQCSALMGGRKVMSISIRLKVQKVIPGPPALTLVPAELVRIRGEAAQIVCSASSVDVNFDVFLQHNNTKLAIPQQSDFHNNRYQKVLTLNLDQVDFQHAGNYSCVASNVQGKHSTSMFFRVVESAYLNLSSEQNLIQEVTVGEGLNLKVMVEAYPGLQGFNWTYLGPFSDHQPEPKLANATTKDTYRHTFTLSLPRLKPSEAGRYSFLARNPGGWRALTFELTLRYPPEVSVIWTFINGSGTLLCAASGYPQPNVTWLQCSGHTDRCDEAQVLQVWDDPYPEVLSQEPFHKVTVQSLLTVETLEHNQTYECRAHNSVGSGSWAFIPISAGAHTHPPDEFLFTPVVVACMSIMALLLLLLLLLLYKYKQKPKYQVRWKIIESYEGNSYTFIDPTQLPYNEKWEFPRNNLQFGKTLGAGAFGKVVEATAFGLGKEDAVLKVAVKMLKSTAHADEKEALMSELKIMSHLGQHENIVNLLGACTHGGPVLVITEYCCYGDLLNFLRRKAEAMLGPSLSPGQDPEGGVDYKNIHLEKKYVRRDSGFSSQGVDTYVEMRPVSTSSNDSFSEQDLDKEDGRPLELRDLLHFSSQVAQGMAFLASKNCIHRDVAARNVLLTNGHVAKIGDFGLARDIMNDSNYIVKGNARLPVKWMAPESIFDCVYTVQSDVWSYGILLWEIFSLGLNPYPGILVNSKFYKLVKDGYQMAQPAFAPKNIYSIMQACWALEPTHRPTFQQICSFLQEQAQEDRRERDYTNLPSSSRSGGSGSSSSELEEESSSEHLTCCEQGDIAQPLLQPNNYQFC

`Cn1nc(C(C)(C)C)cc1NC(=O)Cc1ccc(Nc2cc(Nc3ccc(S(C)(=O)=O)cc3)ncn2)cc1` [13a, 2-(4-(6-(4-(Methylsulfonyl)phenylamino)pyrimidin-4-ylamino)phenyl)-N-(3-tert-butyl-1-methyl-1H-pyrazol-5-yl)acetamide]: the “fold less inhibition on other closely related kinases versus FLT3” value in assay [1] (enzymatic level) is over 100 fold. Moreover, the IC50 came out at 13.9 nM in assay [1]; 13000 nM in assay [4] (in vitro kinase assay, read-out: CSF-1R IC50 (nM) ± SD); 13000 nM in assay [4] (read-out: CSF-1R IC50). Also, in assay [1], the LE is 0.28. Also, in assay [2], the inhibition at 20 µM is 79.8%. Also, the GI50 in assay [3] is 24.4 nM; in assay [5] it was 1840 nM; in assay [6], 1340 nM. Besides, the “fold reduction in cellular activity against Molm14^D835Y” value in assay [5] (relative to the parental FLT3-ITD cells) was ~ 10 fold. For the same compound, the “fold reduction in cellular activity against Molm14^F691L” value in assay [6] (gatekeeper mutation, relative to the parental FLT3-ITD cells) is given as ~ 10 fold.

As to `CC(C)(C)c1cc(NC(=O)Cc2ccc(Nc3cc(Nc4ccc(S(C)(=O)=O)cc4)ncn3)cc2)no1` [13k, 2-(4-(6-(4-(Methylsulfonyl)phenylamino)pyrimidin-4-ylamino)phenyl)-N-(5-tert-butylisoxazol-3-yl)acetamide], the “fold less active than 13a on FLT3” value in assay [1] (enzymatic FLT3 IC50 compared with 13a) was ~ 5 fold. The IC50 in assay [1] was 63 nM. The same compound showed an LE in assay [1] of 0.27. The inhibition at 20 µM in assay [2] is 71.9%; in assay [4] (at 20 µM), 60.7%. For the same compound, the GI50 in assay [3] turned out to be 19.8 nM; in assay [5], 2610 nM; in assay [6], 2140 nM.

Source of the values: PMC5829162, “Rational Design, Synthesis and Biological Evaluation of Pyrimidine-4,6-diamine derivatives as Type-II inhibitors of FLT3 Selective Against c-KIT” (Scientific Reports, 2018).
